# Reference: US10842878B2, “Degradation of Bruton's tyrosine kinase (BTK) by conjugation of BTK inhibitors with E3 ligase ligand and methods of use” (Dana-Farber Cancer Institute, Inc., priority 2016, dated 2020)
# Molecular target: T1, BTK (Homo sapiens, UniProt Q06187)
# T1 construct: protein lysate harvest and Western blotting analysis of BTK, Aurora A, and α-tubulin levels; endogenous in cells; host or cells: MOLM14 cells
# Assay: Cell assay and Western blotting analysis of BTK levels in MOLM14 cells
# Format: cell-based
# Details: MOLM14 cells treated with 40 nM, 200 nM, 1 μM for 4 or 12 hours (FIG. 1: 4 hours); DMSO control; Aurora A and α-tubulin also blotted
# Experimental: MOLM14 cells were treated with DMSO or with 40 nM, 200 nM, 1 μM of a BTK bifunctional inhibitor compound of the disclosure for 4 or 12 hours, followed by protein lysate harvest and Western blotting analysis of BTK, Aurora A, and α-tubulin levels.
# Cells are lysed using RIPA buffer supplemented with protease inhibitor cocktail (Roche) and phosSTOP phosphatase inhibitor cocktail (Roche) on ice for 15 minutes. The lysates are spun at 20,000×g for 15 minutes on 4° C. and protein concentration is determined using BCA assay (Pierce). The following primary antibodies are used in this study: BTK, GADPH, tubulin and Aurora A kinase (all from Cell Signaling Technology). Blots are imaged using fluorescence-labeled secondary antibodies (LI-COR) on the OdysseyCLxImager (LI-COR). Quantification of band intensities is performed using OdysseyCLx software (LI-COR).
# T1 sequence (Q06187 whole entry): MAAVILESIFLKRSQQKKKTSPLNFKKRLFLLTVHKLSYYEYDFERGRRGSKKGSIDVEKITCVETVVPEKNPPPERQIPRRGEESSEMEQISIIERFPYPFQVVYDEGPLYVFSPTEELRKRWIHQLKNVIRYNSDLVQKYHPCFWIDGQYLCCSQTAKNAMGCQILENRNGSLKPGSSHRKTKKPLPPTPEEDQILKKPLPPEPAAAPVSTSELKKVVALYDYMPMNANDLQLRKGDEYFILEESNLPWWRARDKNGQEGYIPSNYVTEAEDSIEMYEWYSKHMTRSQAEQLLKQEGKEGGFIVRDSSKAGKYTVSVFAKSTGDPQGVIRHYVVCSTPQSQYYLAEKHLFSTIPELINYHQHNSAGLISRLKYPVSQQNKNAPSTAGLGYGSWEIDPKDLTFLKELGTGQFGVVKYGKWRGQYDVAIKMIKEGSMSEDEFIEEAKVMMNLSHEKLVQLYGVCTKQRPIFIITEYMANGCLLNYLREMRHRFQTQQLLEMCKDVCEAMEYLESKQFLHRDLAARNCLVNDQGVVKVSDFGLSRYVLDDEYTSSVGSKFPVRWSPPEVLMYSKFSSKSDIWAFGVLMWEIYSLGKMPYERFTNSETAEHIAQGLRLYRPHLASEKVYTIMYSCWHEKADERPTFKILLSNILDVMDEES
smiles,measurement,value
"Cc1c(NC(=O)c2ccc(C(C)(C)C)cc2)cccc1-c1cn(C)c(=O)c(Nc2ccc(C(=O)N3CCN(CCOCCOCCNC(=O)CNc4cccc5c4C(=O)N(C4CCC(=O)NC4=O)C5=O)CC3)cc2)n1 (stereo not shown) [Compound I-5, 4-(tert-butyl)-N-(3-(6-((4-(4-(2-(2-(2-(2-((2-(2,6-dioxopiperidin-3-yl)-1,3-dioxoisoindolin-4-yl)amino)acetamido)ethoxy)ethoxy)ethyl)piperazine-1-carbonyl)phenyl)amino)-4-methyl-5-oxo-4,5-dihydropyrazin-2-yl)-2-methylphenyl)benzamide]",BTK degradation (Western blotting analysis of BTK levels),showed BTK degradation
